Experimental data as given in PMC10363981, “Optimizing the enzymatic release of MMAE from isoDGR-based small molecule drug conjugate by incorporation of a GPLG-PABC enzymatically cleavable linker” (Frontiers in Pharmacology, 2023).

Legend:
Test in all cases: In vitro antiproliferative activity in the presence of MMP-2 inhibitor
Assay type in all cases: cell-based, human
SK-MEL-28 cells = conditions: 16 h pre-incubation with MMP-2 inhibitor 10 µM, then 72 h continuous treatment, 5% serum final; average ± SD, triplicate; read-out: IC50 MMP-2 inhibitor + Treatment 72 h SK-MEL-28 (αVβ3 +)
Method: (§1) For the evaluation of the in vitro antiproliferative activity of compounds, the cell viability was determined by MTT assay (3-(4,5-dimethylthiazol-2-yl)-2,5-diphenyl-tetrazolium bromide) obtained from Duchefa Biochemie (Haarlem, Netherlands).
(§2) 22 µL of MTT solution (5 mg/mL in PBS, 0.5 mg/mL final) was added to each well and after 2 h incubation at 37°C, the supernatant was removed. The precipitated purple formazan crystals were dissolved in 100 µL of a 1:1 solution of dimethylsulfoxide (DMSO; Merck, St. Louis, MO, United States): 96% Ethanol (Molar Chemicals Kft., Halásztelek, Hungary) and the absorbance was measured after 15 min at λ = 570 nm by using microplate reader CLARIOstar Plus (BMG Labtech, Ortenberg, Germany). Average background absorbance (DMSO-Ethanol) was subtracted from absorbance values of control and treated wells, and cell viability was determined relative to untreated (control) wells where cell viability was arbitrarily set to 100%. Absorbance values of treated samples were normalized versus untreated control samples and interpolated by nonlinear regression analysis with GraphPad Prism 6 software (GraphPad, La Jolla, San Diego, CA, United States) to generate sigmoidal dose-response curves from which the 50% inhibitory concentration (IC50) values of the compounds were calculated and presented as nanomolar (nM) units. The experiments were done in triplicate and each experiment was repeated three times.
(§3) The conjugate 2 and the free MMAE were tested in presence of the MMP-2 inhibitor cis-9-octadecenoyl-N-hydroxylamine (Merck) dissolved in DMSO ([You et al., 2018]). The three αVβ3 integrin and MMP-2 overexpressing cancer cell lines (U87MG, SK-MEL-28, […]) were seeded with serum containing medium ([Ellijimi et al., 2018]; [Shim et al., 2019]) and, after 8 h, were washed-out. Then, 100 µL per well of MMP-2 inhibitor (10 µM final concentration) were added and cells were incubated for 16 h, prior to the treatment. Later, the conjugate 2 and free MMAE were dissolved in 10% serum containing medium and added to reach the same concentrations evaluated in the previous test in a final volume of 100 µL per well and incubated (5% serum final) continuously for 72 h of the treatment. The experiments were performed in triplicate.

SK-OV-3 cells = conditions: 16 h pre-incubation with MMP-2 inhibitor 10 µM, then 72 h continuous treatment, 5% serum final; average ± SD, triplicate; read-out: IC50 MMP-2 inhibitor + Treatment 72 h SK-OV-3 (αVβ3 +)
Method: as §1, §2, §3

U87MG cells = conditions: 16 h pre-incubation with MMP-2 inhibitor 10 µM, then 72 h continuous treatment, 5% serum final; average ± SD, triplicate; read-out: IC50 MMP-2 inhibitor + Treatment 72 h U87MG (αVβ3 +)
Method: as §1, §2, §3

SMILES: CC[C@H](C)[C@@H]([C@@H](CC(=O)N1CCC[C@H]1[C@H](OC)[C@@H](C)C(=O)N[C@H](C)[C@@H](O)c1ccccc1)OC)N(C)C(=O)[C@@H](NC(=O)[C@H](C(C)C)N(C)C(=O)OCc1ccc(NC(=O)CNC(=O)[C@H](CC(C)C)NC(=O)[C@@H]2CCCN2C(=O)CNC(=O)CCc2cn(CCOCCOCCOCCOCC(=O)NCc3ccc(CN4C(=O)[C@H]5CC(=O)N[C@H](C(=O)O)CC(=O)NCC(=O)N[C@@H](CCCNC(=N)N)C(=O)NC[C@H]4C(=O)N5)cc3)nn2)cc1)C(C)C [compound 2, cyclo[DKP-isoDGR]-PEG4-GPLG-PABC-MMAE]
- IC50 (SK-MEL-28 cells): 28.7 nM
- IC50 (SK-OV-3 cells): 3.2 nM
- IC50 (U87MG cells): 7.4 nM
